The source of these data is patent publication US8017775B2, “1-2-dihydroquinoline derivative having glucocorticoid receptor binding activity” (Santen Pharmaceutical Co., Ltd., priority 2005, dated 2011).

This experiment addresses T1, Recombinant human GR (Homo sapiens, UniProt P04150).
T1 construct: purchased Invitrogen P2816
T1 sequence (P04150 1-777): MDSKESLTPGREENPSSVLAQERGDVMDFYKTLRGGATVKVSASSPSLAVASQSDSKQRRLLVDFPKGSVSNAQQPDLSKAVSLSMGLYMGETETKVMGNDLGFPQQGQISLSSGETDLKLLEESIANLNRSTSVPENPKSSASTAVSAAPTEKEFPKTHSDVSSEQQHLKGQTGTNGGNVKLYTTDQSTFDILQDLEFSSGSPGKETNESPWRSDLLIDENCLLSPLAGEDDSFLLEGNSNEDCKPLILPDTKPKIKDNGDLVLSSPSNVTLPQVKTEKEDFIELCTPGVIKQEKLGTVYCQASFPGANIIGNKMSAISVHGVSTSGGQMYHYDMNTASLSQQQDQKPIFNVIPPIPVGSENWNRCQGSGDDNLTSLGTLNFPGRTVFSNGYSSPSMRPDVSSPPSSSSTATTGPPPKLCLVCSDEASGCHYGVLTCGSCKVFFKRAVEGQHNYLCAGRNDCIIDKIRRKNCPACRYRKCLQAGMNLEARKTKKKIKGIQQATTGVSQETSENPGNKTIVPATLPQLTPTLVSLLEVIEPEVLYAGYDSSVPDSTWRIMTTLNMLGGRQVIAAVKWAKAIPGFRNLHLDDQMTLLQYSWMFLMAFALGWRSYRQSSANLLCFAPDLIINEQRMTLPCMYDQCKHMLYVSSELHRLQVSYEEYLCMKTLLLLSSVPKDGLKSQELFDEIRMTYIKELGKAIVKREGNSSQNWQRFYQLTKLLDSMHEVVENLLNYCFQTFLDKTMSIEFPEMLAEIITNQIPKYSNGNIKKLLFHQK
The experiment is described as follows: GR competitor assay by fluorescence polarization (GR binding ratio). The note with it: positive control 2 mM dexamethasone, a GR binding ratio of 100% or more is indicated by 100%. How it is done:
1. Evaluation Test for Binding Activity to Glucocorticoid Receptor (hereinafter referred to as “GR”)
In order to evaluate a binding activity to GR, a receptor competitor assay was carried out by a fluorescence polarization method. In the assay, a GR competitor assay kit (manufactured by Invitrogen, cat No. P2816) was used, and a procedure was carried out according to the protocol attached to the kit. Hereinafter, the specific method will be described.
GR screening buffer: A buffer containing 10 mM potassium phosphate (pH 7.4), 20 mM sodium molybdate (Na2MoO4), 0.1 mM ethylene diamine tetraacetic acid (EDTA), 5 mM dithiothreitol (DTT), 0.1 mM stabilizing peptide and 2% dimethylsulfoxide was prepared.
4×GS1 solution: Fluormone™ GS1, which is a fluorescent glucocorticoid ligand, was diluted with GR screening buffer, whereby a 4 nM solution was prepared.
4×GR solution: Recombinant human GR was diluted with GR screening buffer, whereby a 16 nM solution was prepared.
After a test compound was dissolved in dimethylsulfoxide, the resulting solution was diluted with GR screening buffer, whereby a 20 μM test compound solution was prepared.
1) The test compound solution was added in an amount of 25 μL or 10 μL into each well of a 96-well or 384-well plate, and then, 4×GS1 solution and 4×GR solution were added in an amount of 12.5 μL or 5 μL into each well, respectively.
2) The plate was incubated in a dark place at room temperature for 2 to 4 hours.
3) By using a multimode plate reader, Analyst™ HT (manufactured by LJL Biosystems), fluorescence polarization of each well was measured. As the blank, a well containing GR screening buffer in place of the test compound and 4×GS1 solution was used.
4) The same procedure as that in the above 1) to 3) was carried out except that GR screening buffer was used in place of the test compound solution, and the obtained result was taken as the negative control.
5) The same procedure as that in the above 1) to 3) was carried out except that 2 mM dexamethasone was used in place of the test compound solution, and the obtained result was taken as the positive control.
A GR binding ratio (%) was calculated from the following equation.
GR binding ratio (%)=100×[1−(fluorescence polarization of test compound solution−fluorescence polarization of positive control solution)/(fluorescence polarization of negative control solution−fluorescence polarization of positive control solution)]
(In general: Polarisation of emitted light reports the rotation of a fluorescent probe.)

Consider `COc1cc(F)ccc1-c1ccc2c(c1COC(=O)c1cccs1)C(C)=CC(C)(C)N2` [Compound 1-21, 6-(4-Fluoro-2-methoxyphenyl)-5-[(thiophene-2-yl)carbonyloxymethyl]-2,2,4-trimethyl-1,2-dihydroquinoline], for which the “GR Binding ratio (%)” value is reported as 82%.
Turning to `COc1ccccc1NCc1c(-c2cc(C)ccc2OC)ccc2c1C(C)=CC(C)(C)N2` [Compound 6-76, 6-(2-Methoxy-5-methylphenyl)-5-(2-methoxyphenylaminomethyl)-2,2,4-trimethyl-1,2-dihydroquinoline], the “GR Binding ratio (%)” value is on record as at least 100%.
Consider `COc1ccc(Cl)cc1-c1ccc2c(c1COc1ccccc1CCO)C(C)=CC(C)(C)N2` [Compound 3-98, 6-(5-Chloro-2-methoxyphenyl)-5-[2-(2-Hydroxyethyl)phenoxymethyl]-2,2,4-trimethyl-1,2-dihydroquinoline], for which the “GR Binding ratio (%)” value is listed as at least 100%.
Turning to `C=CCc1ccccc1OCc1c(-c2cc(Cl)ccc2OC)ccc2c1C(C)=CC(C)(C)N2` [Compound 14-47, 5-(2-Allylphenoxymethyl)-6-(5-chloro-2-methoxyphenyl)-2,2,4-trimethyl-1,2-dihydroquinoline], the “GR Binding ratio (%)” value was at least 100%.
Consider `COc1ccc(O)cc1-c1ccc2c(c1COc1cc(F)ccc1C)C(C)=CC(C)(C)N2` [Compound 5-4, 5-(5-Fluoro-2-methylphenoxymethyl)-6-(5-hydroxy-2-methoxyphenyl)-2,2,4-trimethyl-1,2-dihydroquinoline], for which the “GR Binding ratio (%)” value is recorded as 95%.
Consider `COc1ccc([N+](=O)[O-])cc1-c1ccc2c(c1COc1cc(F)ccc1C)C(C)=CC(C)(C)N2` [Compound 14-48, 5-(5-Fluoro-2-methylphenoxymethyl)-6-(2-methoxy-5-nitrophenyl)-2,2,4-trimethyl-1,2-dihydroquinoline], for which the “GR Binding ratio (%)” value is given as at least 100%.
With `CCc1ccccc1OCc1c(-c2ccc(F)cc2OC)ccc2c1C(C)=CC(C)(C)N2` [Compound 3-33, 5-(2-Ethylphenoxymethyl)-6-(4-fluoro-2-methoxyphenyl)-2,2,4-trimethyl-1,2-dihydroquinoline] the figure was at least 100%; with `COC(=O)Cc1ccccc1OCc1c(-c2ccc(F)cc2OC)ccc2c1C(C)=CC(C)(C)N2` [Compound 14-1, 6-(4-Fluoro-2-methoxyphenyl)-5-(2-methoxycarbonylmethylphenoxymethyl)-2,2,4-trimethyl-1,2-dihydroquinoline], at least 100%.
As for `COc1cc(F)ccc1-c1ccc2c(c1COc1cc(Cl)ccc1Cl)C(C)=CC(C)(C)N2` [Compound 3-85, 5-(2,5-Diclorophenoxymethyl)-6-(4-fluoro-2-methoxyphenyl)-2,2,4-trimethyl-1,2-dihydroquinoline], the figure is 95%; as for `COc1cc(F)ccc1-c1ccc2c(c1COC(=O)c1ccc(C)s1)C(C)=CC(C)(C)N2` [Compound 12-19, 6-(4-Fluoro-2-methoxyphenyl)-5-[(5-methylthiophen-2-yl)carbonyloxymethyl]-2,2,4-trimethyl-1,2-dihydroquinoline], at least 100%.
As for `COc1ccc(C)cc1-c1ccc2c(c1COc1cc(F)ccc1C)C(C)=CC(C)(C)N2` [Compound 14-11, 5-(5-Fluoro-2-methylphenoxymethyl)-6-(2-methoxy-5-methylphenyl)-2,2,4-trimethyl-1,2-dihydroquinoline], the “GR Binding ratio (%)” value is reported as at least 100%.
As for `COc1cc(F)ccc1-c1ccc2c(c1COC(=O)c1cc(C)cs1)C(C)=CC(C)(C)N2` [Compound 12-21, 6-(4-Fluoro-2-methoxyphenyl)-5-[(4-methylthiophen-2-yl)carbonyloxymethyl]-2,2,4-trimethyl-1,2-dihydroquinoline], the figure is at least 100%.
Turning to `COc1cc(F)ccc1-c1ccc2c(c1CNc1cccc(C)c1)C(C)=CC(C)(C)N2` [Compound 6-36, 6-(4-Fluoro-2-methoxyphenyl)-5-(3-methylphenylaminomethyl)-2,2,4-trimethyl-1,2-dihydroquinoline], the “GR Binding ratio (%)” value turned out to be 98%.
For the compound `COc1cc(F)ccc1-c1ccc2c(c1COc1ccccc1CCO)C(C)=CC(C)(C)N2` [Compound 3-68, 6-(4-Fluoro-2-methoxyphenyl)-5-[2(2-hydroxyethyl)phenoxymethyl)-2,2,4-trimethyl-1,2-dihydroquinoline], the “GR Binding ratio (%)” value is given as at least 100%.
As for `COc1cc(F)ccc1-c1ccc2c(c1CNc1ccccc1CCO)C(C)=CC(C)(C)N2` [Compound 6-77, 6-(4-Fluoro-2-methoxyphenyl)-5-[2-(2-hydroxyethyl)phenylaminomethyl)-2,2,4-trimethyl-1,2-dihydroquinoline], the “GR Binding ratio (%)” value is on record as at least 100%.
With `COc1ccc(F)cc1-c1ccc2c(c1COc1cc(C)ccc1C)C(C)=CC(C)(C)N2` [Compound 14-40, 5-(2,5-Dimethylphenoxymethyl)-6-(5-fluoro-2-methoxyphenyl)-2,2,4-trimethyl-1,2-dihydroquinoline] the figure was at least 100%.
On to `COc1cc(F)ccc1-c1ccc2c(c1COC(=O)c1ccc(Cl)s1)C(C)=CC(C)(C)N2` [Compound 12-22, 5-[(5-Chlorothiophen-2-yl)carbonyloxymethyl]-6-(4-fluoro-2-methoxyphenyl)-2,2,4-trimethyl-1,2-dihydroquinoline], for which the “GR Binding ratio (%)” value was at least 100%.
On to `COc1ccc(F)cc1OCc1c(-c2ccc(F)cc2OC)ccc2c1C(C)=CC(C)(C)N2` [Compound 3-67, 5-(5-Fluoro-2-methoxyphenoxymethyl)-6-(4-fluoro-2-methoxyphenyl)-2,2,4-trimethyl-1,2-dihydroquinoline], for which the “GR Binding ratio (%)” value is listed as at least 100%.
Turning to `COc1cc(F)ccc1-c1ccc2c(c1COC(=O)c1ccc3c(c1)OCO3)C(C)=CC(C)(C)N2` [Compound 12-42, 5-[(1,3-Benzodioxol-5-yl)carbonyloxymethyl]-6-(4-fluoro-2-methoxyphenyl)-2,2,4-trimethyl-1,2-dihydroquinoline], the “GR Binding ratio (%)” value was 99%.
Take `COc1ccc(C)cc1OCc1c(-c2ccc(F)cc2OC)ccc2c1C(C)=CC(C)(C)N2` [Compound 3-59, 6-(4-Fluoro-2-methoxyphenyl)-5-(2-methoxy-5-methylphenoxymethyl)-2,2,4-trimethyl-1,2-dihydroquinoline]: the “GR Binding ratio (%)” value is at least 100%.
For `CCc1ccc(C(=O)OCc2c(-c3ccc(F)cc3OC)ccc3c2C(C)=CC(C)(C)N3)s1` [Compound 12-20, 5-[(5-Ethylthiophen-2-yl)carbonyloxymethyl]-6-(4-fluoro-2-methoxyphenyl)-2,2,4-trimethyl-1,2-dihydroquinoline], the “GR Binding ratio (%)” value is reported as at least 100%.
For the compound `COc1cc(F)ccc1-c1ccc2c(c1CNc1ccccc1C(C)C)C(C)=CC(C)(C)N2` [Compound 6-47, 6-(4-Fluoro-2-methoxyphenyl)-5-(2-isopropylphenylaminomethyl)-2,2,4-trimethyl-1,2-dihydroquinoline], the “GR Binding ratio (%)” value is at least 100%.
On to `COc1ccccc1NCc1c(-c2cc(F)c(F)cc2OC)ccc2c1C(C)=CC(C)(C)N2` [Compound 6-27, 6-(4,5-Difluoro-2-methoxyphenyl)-5-(2-methoxyphenylaminomethyl)-2,2,4-trimethyl-1,2-dihydroquinoline], for which the “GR Binding ratio (%)” value was at least 100%.
With `COc1ccc([N+](=O)[O-])cc1OCc1c(-c2ccc(F)cc2OC)ccc2c1C(C)=CC(C)(C)N2` [Compound 3-61, 6-(4-Fluoro-2-methoxyphenyl)-5-(2-methoxy-5-nitrophenoxymethyl)-2,2,4-trimethyl-1,2-dihydroquinoline], the “GR Binding ratio (%)” value is at least 100%.
